# Data reported in ChEMBL document CHEMBL5726258, “Pyrimidine PDE10 inhibitors” (2017).
# Biological target: cAMP and cAMP-inhibited cGMP 3',5'-cyclic phosphodiesterase 10A (Homo sapiens, UniProt Q9Y233)
# Assay: Fluorescence Polarization Assay: The fluorescence polarization assay for cyclic nucleotide phosphodiesterases was performed using an IMAP® FP kit supplied by Molecular Devices, Sunnyvale, Calif. (product # R8139). IMAP® technology has been applied previously to phosphodiesterase assays (Huang, W., et al., J. Biomol Screen, 2002, 7: 215). Assays were performed at room temperature in 384-well microtiter plates with an incubation volume of 20.2 μL. Solutions of test compounds were prepared in DMSO and serially diluted with DMSO to yield 8 μL of each of 10 solutions differing by 3-fold in concentration, at 32 serial dilutions per plate.
# Chain of cAMP and cAMP-inhibited cGMP 3',5'-cyclic phosphodiesterase 10A (Q9Y233 whole entry): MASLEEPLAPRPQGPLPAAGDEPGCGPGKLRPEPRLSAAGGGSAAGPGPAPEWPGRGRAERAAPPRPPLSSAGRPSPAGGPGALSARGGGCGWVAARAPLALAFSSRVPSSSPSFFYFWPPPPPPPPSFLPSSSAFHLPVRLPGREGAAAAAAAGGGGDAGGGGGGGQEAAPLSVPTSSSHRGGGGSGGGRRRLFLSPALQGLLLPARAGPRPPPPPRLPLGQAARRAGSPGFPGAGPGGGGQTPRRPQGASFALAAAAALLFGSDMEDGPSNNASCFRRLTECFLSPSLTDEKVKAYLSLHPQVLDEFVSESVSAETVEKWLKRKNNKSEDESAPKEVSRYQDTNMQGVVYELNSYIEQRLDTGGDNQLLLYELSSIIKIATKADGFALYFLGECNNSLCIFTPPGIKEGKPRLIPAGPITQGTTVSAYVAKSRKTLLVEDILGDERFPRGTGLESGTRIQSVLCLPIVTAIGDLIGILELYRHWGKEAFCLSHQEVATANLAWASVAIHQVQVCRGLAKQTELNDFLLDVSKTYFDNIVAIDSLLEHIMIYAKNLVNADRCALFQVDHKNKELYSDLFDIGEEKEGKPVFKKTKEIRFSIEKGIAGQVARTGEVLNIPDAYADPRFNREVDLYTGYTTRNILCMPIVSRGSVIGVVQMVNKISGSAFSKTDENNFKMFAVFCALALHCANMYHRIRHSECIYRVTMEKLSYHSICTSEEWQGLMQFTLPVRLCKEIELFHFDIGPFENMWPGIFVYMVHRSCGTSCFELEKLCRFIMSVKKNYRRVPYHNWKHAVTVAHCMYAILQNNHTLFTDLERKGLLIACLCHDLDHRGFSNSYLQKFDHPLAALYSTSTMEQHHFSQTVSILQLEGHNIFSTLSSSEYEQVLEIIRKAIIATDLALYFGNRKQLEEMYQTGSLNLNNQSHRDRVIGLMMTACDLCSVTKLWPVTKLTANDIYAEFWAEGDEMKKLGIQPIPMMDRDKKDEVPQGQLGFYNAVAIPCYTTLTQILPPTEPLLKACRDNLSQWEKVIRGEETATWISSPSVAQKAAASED
row,Compound,Ki
1,Cc1ccc([C@H]2C[C@@H]2COc2nc(C)ncc2-c2cccc(C(F)(F)F)c2)nc1,0.83 nM
2,Cc1ncc(-c2cnc(C(C)(C)O)cc2C)c(OC[C@H]2C[C@@H]2c2ccc3ccccc3n2)n1,< 0.01 nM
3,COc1ccc([C@H]2C[C@@H]2COc2nc(C)ncc2-c2ccc(Cl)nc2)nc1,1.3 nM
4,Cc1ccc([C@H]2C[C@@H]2COc2nc(C)ncc2-c2cncnc2)nc1,2.56 nM
5,Cc1ncc(-c2ccc(C(C)(C)O)nc2)c(OC[C@H]2C[C@@H]2c2ccc(F)cn2)n1,0.57 nM
